A value given as a limit tells only on which side of the number the result lay.

Test [1] addresses T1, Dual specificity protein kinase CLK1 (Homo sapiens, UniProt P49759). The test is described as follows: Inhibition of CLK1 (unknown origin).
Target sequence in this assay (P49759 whole entry): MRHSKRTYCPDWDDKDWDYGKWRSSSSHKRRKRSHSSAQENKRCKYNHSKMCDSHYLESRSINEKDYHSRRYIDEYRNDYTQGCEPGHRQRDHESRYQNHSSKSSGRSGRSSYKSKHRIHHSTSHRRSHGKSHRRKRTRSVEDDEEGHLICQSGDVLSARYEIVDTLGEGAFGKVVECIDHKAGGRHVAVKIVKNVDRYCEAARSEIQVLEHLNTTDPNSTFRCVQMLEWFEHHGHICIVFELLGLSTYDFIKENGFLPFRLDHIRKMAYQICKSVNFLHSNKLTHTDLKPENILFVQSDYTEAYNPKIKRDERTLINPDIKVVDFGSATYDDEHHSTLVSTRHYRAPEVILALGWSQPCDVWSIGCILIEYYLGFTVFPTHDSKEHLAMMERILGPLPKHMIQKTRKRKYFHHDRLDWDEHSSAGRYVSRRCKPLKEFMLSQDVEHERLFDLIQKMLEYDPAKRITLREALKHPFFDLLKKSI
Test [2] has as its target Dual specificity protein kinase CLK4 (Homo sapiens, UniProt Q9HAZ1). The test is described as follows: Inhibition of CLK4 (unknown origin).
In test [3] the target is T2, Glycogen synthase kinase-3 beta (Homo sapiens, UniProt P49841). The test can be described thus: Binding affinity to GSK3B (unknown origin) assessed as change in melting temperature of protein at 10 uM by Sypro-orange dye based DSF assay. On the technique in general: In DSF a fluorescence change marks the thermal transition of the protein.
Target sequence in this assay (P49841 whole entry, looked up): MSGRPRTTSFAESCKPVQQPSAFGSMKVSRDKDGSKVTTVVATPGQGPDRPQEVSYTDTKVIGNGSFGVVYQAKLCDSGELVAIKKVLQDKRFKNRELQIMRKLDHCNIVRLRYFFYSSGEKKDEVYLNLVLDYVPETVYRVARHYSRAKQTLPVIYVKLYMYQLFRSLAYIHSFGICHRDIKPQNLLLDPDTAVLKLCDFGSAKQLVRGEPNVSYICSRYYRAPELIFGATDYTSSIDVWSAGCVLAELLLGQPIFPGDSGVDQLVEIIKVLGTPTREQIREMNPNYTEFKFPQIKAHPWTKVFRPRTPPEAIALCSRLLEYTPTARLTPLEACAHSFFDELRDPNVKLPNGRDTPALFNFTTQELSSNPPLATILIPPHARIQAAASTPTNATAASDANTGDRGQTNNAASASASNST
Test [4] deals with Dual specificity protein kinase CLK3 (Homo sapiens, UniProt P49761). The test is described as follows: Inhibition of CLK3 (unknown origin).
For test [5], the target named is T3, Dual specificity tyrosine-phosphorylation-regulated kinase 3 (Homo sapiens, UniProt O43781).
T3 sequence (O43781 whole entry): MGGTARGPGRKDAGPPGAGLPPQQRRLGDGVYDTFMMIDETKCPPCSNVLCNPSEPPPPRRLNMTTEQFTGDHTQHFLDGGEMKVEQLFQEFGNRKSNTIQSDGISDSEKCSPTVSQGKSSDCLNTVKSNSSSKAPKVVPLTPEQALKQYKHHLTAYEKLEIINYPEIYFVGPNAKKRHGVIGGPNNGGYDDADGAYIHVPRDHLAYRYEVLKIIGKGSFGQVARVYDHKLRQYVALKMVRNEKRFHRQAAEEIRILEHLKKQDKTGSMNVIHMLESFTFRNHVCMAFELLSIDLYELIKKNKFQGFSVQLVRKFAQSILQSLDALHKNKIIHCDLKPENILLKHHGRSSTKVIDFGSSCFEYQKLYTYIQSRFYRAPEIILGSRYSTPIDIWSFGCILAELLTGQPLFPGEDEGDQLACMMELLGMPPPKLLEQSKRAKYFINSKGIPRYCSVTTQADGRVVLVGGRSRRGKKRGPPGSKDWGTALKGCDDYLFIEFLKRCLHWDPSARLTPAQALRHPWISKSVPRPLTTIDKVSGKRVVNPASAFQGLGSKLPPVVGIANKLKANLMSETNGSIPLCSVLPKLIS
The test can be described thus: Inhibition of DYRK3 (unknown origin).

Test [6] has as its target T4, Dual specificity tyrosine-phosphorylation-regulated kinase 2 (Homo sapiens) (UniProt Q92630).
T4 sequence (whole entry): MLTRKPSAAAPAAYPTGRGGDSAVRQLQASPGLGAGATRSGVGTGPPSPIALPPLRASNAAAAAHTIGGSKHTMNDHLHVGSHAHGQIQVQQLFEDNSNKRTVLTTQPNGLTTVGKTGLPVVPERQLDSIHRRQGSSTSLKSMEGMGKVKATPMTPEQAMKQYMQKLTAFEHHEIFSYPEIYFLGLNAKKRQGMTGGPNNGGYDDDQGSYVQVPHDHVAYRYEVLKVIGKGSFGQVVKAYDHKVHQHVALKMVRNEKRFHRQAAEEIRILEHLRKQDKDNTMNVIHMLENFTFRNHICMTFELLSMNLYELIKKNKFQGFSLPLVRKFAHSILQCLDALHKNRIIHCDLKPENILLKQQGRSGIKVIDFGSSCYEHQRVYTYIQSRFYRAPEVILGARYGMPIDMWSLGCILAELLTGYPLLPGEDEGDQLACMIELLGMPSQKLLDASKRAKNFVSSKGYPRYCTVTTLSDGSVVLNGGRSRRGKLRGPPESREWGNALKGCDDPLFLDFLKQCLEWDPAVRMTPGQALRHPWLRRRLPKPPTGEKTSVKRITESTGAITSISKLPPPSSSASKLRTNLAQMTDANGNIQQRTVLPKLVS
The test can be described thus: Binding affinity to DYRK2 (unknown origin) assessed as change in melting temperature of protein at 10 uM by Sypro-orange dye based DSF assay.

The target of test [7] is T5, Dual specificity tyrosine-phosphorylation-regulated kinase 4 (Homo sapiens, UniProt Q9NR20).
T5 sequence (Q9NR20 whole entry): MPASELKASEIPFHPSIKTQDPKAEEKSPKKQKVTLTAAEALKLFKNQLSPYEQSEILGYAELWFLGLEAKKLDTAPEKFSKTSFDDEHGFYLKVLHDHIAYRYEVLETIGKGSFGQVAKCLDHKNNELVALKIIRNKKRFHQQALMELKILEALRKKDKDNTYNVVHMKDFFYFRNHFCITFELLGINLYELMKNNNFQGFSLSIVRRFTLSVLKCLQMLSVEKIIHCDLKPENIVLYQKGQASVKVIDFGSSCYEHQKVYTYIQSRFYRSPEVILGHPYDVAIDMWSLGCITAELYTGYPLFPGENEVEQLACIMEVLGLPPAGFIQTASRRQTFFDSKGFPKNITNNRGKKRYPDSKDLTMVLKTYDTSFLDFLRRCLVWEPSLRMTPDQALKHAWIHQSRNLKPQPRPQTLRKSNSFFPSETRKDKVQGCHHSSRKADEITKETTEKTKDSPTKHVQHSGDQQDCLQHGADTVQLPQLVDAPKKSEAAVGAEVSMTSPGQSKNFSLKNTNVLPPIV
The test is described as follows: Inhibition of DYRK4 (unknown origin).

For test [8], the target named is Glycogen synthase kinase-3 alpha (Homo sapiens, UniProt P49840). The test is described as follows: Inhibition of GSK3A (unknown origin).
The target of test [9] is Dual specificity tyrosine-phosphorylation-regulated kinase 1A (Homo sapiens) (UniProt Q13627). The test is described as follows: Binding affinity to 6x-His-tagged DYRK1A (unknown origin) assessed as change in melting temperature of protein at 10 uM by Sypro-orange dye based DSF assay.
Test [10] has as its target T1, Dual specificity protein kinase CLK1. The test is described as follows: Binding affinity to CLK1 (unknown origin) assessed as change in melting temperature of protein at 10 uM by Sypro-orange dye based DSF assay.
Target sequence in this assay (P49759 whole entry, looked up): as the sequence (P49759 whole entry) above
Test [11] addresses Dual specificity protein kinase CLK2 (Homo sapiens, UniProt P49760). The test can be described thus: Inhibition of CLK2 (unknown origin).
Test [12] addresses T6, Dual specificity tyrosine-phosphorylation-regulated kinase 2 (Homo sapiens, UniProt Q92630).
T6 sequence (Q92630 whole entry): T4 sequence (whole entry)
The test can be described thus: Inhibition of DYRK2 (unknown origin).

Test [13] addresses T2, Glycogen synthase kinase-3 beta. The test can be described thus: Inhibition of GSK3B (unknown origin).
Target sequence in this assay (P49841 whole entry): as the sequence (P49841 whole entry, looked up) above

Sequence of Dual specificity protein kinase CLK2 (P49760 whole entry): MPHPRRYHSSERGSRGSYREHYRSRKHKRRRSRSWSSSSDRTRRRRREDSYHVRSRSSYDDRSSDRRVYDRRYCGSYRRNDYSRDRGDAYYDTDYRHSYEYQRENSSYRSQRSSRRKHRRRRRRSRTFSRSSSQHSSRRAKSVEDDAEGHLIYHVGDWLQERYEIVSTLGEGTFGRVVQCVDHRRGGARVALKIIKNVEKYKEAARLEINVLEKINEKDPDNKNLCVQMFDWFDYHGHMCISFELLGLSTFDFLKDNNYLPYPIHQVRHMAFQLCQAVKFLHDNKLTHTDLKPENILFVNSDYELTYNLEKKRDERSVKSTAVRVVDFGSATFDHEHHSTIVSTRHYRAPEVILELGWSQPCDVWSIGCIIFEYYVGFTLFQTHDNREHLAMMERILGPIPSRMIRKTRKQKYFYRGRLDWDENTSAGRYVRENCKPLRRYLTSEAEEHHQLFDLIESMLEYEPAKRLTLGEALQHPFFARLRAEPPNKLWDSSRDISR
Sequence of Dual specificity protein kinase CLK3 (P49761 whole entry): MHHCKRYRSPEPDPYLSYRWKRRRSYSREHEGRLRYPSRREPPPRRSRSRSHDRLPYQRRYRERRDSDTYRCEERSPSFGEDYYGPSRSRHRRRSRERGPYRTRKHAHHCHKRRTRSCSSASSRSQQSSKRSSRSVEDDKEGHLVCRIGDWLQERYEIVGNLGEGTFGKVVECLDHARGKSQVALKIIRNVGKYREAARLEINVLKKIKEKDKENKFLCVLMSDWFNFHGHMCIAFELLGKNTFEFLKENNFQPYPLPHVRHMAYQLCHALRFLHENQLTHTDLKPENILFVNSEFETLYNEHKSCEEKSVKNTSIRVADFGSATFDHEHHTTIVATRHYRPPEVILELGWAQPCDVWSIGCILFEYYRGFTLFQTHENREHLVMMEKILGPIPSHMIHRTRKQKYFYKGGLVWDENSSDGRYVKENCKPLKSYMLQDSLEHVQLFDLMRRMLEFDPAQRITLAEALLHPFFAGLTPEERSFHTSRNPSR
Sequence of Glycogen synthase kinase-3 alpha (P49840 whole entry): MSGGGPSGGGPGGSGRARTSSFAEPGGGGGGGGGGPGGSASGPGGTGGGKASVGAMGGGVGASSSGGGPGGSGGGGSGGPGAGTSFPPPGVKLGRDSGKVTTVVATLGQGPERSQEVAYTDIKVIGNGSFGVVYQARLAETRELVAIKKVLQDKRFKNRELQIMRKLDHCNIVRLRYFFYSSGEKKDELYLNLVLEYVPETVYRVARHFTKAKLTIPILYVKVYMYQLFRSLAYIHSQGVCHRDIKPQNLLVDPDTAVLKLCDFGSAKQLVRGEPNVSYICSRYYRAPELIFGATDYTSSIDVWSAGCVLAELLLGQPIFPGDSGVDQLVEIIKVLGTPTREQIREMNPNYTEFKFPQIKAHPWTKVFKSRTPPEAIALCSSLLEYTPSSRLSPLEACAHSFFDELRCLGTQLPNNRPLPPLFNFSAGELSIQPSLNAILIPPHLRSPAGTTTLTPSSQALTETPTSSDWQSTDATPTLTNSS
Sequence of Dual specificity protein kinase CLK4 (Q9HAZ1 whole entry): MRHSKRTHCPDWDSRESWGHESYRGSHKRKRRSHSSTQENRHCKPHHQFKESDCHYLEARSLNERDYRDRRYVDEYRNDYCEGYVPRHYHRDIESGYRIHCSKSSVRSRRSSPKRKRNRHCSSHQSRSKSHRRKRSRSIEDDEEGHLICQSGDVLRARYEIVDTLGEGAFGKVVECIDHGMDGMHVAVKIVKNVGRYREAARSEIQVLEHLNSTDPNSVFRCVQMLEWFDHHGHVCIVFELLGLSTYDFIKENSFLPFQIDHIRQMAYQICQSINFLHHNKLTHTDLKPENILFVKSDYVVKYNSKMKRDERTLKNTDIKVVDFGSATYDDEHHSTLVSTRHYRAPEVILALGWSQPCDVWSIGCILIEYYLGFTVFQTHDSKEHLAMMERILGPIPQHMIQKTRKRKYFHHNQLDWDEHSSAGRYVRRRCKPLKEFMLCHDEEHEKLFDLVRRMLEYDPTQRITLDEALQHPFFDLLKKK

In general, IC50 refers to the concentration at which inhibition is half-maximal. As a reminder, the ΔTm is the change in melting temperature against a reference sample. For the compound `COC(=N)c1nc2ccc3ncnc(Nc4ccc(OC)cc4F)c3c2s1`, the IC50 in [1] came to 11 nM; in [2], 32 nM; in [4] it was 1420 nM; in [5], 21.1 nM; in test [7] (read-out: IC50), 1570 nM; in test [8], 9.11 nM. Moreover, the IC50 in test [11] was found to be 32.5 nM; in test [12], 3.16 nM; in test [13] it was 143 nM. The ΔTm in test [3] is 5 °C; in [6] it was 5 °C; in test [9], 9 °C; in [10], 5 °C.
`COC(=N)c1nc2ccc3ncnc(Nc4ccc(Cl)cc4Cl)c3c2s1`: the IC50 in test [1] is 22.8 nM; in test [2], 59 nM; in [4], > 10000 nM; in test [5], 93.2 nM; in test [7], “Not Active”; in test [8], 7.44 nM. The figures for the concentration for half-maximal inhibition (IC50) in [11], in test [12] and in [13] were 88.8 nM, 10.8 nM and 221 nM, respectively. The ΔTm in test [3] was 5 °C; in test [6], 5 °C; in test [9] it was 9 °C; in test [10] it was 5 °C.
